We go through two compounds from BindingDB's records for doi:10.1021/acs.jmedchem.6b00788 (University of Pittsburgh, 2017).

A short description of the assay: Inhibition of TNFalpha-PLAP (unknown origin).

Structures are written as SMILES.

As for `COc1cc(O)c2c(c1)/C=C/C[C@H](O)[C@H](O)C(=O)/C(F)=C\C[C@H](C)OC2=O`, the concentration for half-maximal inhibition (IC50) (as a rule, the concentration that inhibits the measured activity by half) turned out to be 36 nM. In other words, the double-digit nanomolar range.

For `COc1cc(O)c2c(c1)/C=C/C[C@H](O)[C@H](O)C(=O)/C=C(/C)C[C@H](C)OC2=O`, the IC50 is greater than 10000 nM.
